Assay [1] has as its target T1, wild-type human CaSR (calcium-sensing receptor) (Homo sapiens, UniProt P41180).
T1 construct: full-length wild-type, cmyc-tagged
T1 sequence (P41180 20-1078): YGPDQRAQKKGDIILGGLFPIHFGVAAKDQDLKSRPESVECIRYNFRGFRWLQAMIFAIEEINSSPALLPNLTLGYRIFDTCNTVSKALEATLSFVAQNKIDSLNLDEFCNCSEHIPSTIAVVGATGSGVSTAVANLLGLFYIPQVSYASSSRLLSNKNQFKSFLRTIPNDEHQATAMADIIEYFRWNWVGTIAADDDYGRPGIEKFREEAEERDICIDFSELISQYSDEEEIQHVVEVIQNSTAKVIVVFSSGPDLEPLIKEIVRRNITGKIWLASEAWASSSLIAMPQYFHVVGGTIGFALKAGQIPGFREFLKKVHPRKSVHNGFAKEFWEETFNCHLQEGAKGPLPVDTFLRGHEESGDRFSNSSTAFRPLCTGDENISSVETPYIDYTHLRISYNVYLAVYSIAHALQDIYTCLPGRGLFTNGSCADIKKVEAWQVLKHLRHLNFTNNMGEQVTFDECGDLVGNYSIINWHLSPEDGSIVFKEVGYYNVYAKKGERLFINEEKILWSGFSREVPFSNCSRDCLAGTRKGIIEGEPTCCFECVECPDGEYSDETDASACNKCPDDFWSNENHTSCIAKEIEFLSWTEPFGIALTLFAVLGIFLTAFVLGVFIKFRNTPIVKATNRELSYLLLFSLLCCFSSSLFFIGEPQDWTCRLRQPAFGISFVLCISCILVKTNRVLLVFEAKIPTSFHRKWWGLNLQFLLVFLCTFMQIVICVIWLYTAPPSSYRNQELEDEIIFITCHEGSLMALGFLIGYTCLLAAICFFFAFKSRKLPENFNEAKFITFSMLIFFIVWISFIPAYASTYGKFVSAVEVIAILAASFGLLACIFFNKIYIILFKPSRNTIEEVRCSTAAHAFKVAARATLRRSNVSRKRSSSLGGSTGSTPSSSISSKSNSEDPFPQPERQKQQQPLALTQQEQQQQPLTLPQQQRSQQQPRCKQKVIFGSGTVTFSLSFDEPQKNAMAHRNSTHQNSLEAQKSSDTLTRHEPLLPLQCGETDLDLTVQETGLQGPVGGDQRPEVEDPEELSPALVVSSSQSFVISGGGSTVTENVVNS
The assay is described as follows: Ca2+i mobilisation (Fluo-8), operational model of allosteric modulation. As to conditions: for Kb: read-out: pKB ± SEM (KB) (converted). Type of assay: cell-based. An excerpt:
Ca2+i mobilisation (Fluo-8), operational model of allosteric modulation on wild-type human CaSR (calcium-sensing receptor)

For assay [2], the target named is T1, wild-type human CaSR (calcium-sensing receptor). The assay is described as follows: Ca2+i mobilisation (Fluo-8), four-parameter sigmoidal fit with shared Hill slope. Type of assay: cell-based. The conditions noted are these: positive allosteric modulation of Ca2+o response, pH 7.4, 37 °C; KB not determinable.
[3] abbreviates: functional affinity estimate (from pKB), positive allosteric modulator, allosteric site, Ca2+o as orthosteric agonist, pH 7.4, 37 °C, reanalysis of the authors' previously published data, cited from earlier work.

Where two headings read alike, the source gives them in different places.

Regarding `Cc1ccc(C(O)(c2nc3ccccc3s2)C(F)(F)F)c(C)c1` (racemic) [compound 5, 5], the Kb in assay [1] (setting [3]) was 5 µM.

On to `Cc1ccc(C2(c3nc4ccccc4s3)CO2)c(C)c1` (racemic) [compound 6, 2-(2-(2,4-Dimethylphenyl)oxiran-2-yl)benzo[d]thiazole], for which the Kb in assay [1] is 29 µM.

As to `C=CC(O)(c1nc2ccccc2s1)c1ccc(C)cc1C` (racemic) [7b, 1-(Benzo[d]thiazol-2-yl)-1-(2,4-dimethylphenyl)prop-2-en-1-ol], the Kb in assay [1] is 8.1 µM.

Regarding `Cc1ccc(C2(c3nc4ccccc4s3)CCO2)c(C)c1` (racemic) [compound 7, 2-(2-(2,4-Dimethylphenyl)oxetan-2-yl)benzo[d]thiazole], the “pKB ± SEM (KB, μM)” value in assay [1] (functional affinity estimate (from pKB), positive allosteric modulator, allosteric site, Ca2+o as orthosteric agonist, pH 7.4, 37 °C, unreliable (extrapolated beyond highest tested concentration 30 μM)) was 123 μM.

With `Cc1ccc(C(C)(O)c2nc3ccccc3s2)c(C)c1` (racemic) [compound 1, 1-(Benzo[d]thiazol-2-yl)-1-(2,4-dimethylphenyl)ethan-1-ol], the Kb in assay [1] (setting [3]) is 3.4 µM.

`Cc1ccc(C(C)(F)c2nc3ccccc3s2)c(C)c1` (racemic) [compound 9, 2-(1-(2,4-Dimethylphenyl)-1-fluoroethyl)benzo[d]thiazole]: the Kb in assay [1] was 10 µM.

Consider `COC(C)(c1nc2ccccc2s1)c1ccc(C)cc1C` (racemic) [compound 8, 2-(1-(2,4-Dimethylphenyl)-1-methoxyethyl)benzo[d]thiazole], for which the “fold increase in Ca2+o potency (pEC50) at 10 μM” value in assay [2] was 1.8 fold.

Source of the values: paper PMC11942566, “Next-Generation Analogues of AC265347 as Positive Allosteric Modulators of the Calcium-Sensing Receptor: Pharmacological Investigation of Structural Modifications at the Stereogenic Centre” (International Journal of Molecular Sciences, 2025).
